Data: PubChem BioAssay (NCI)
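A five-concentration, 48-hour dose response in 96-well plates underlies each endpoint, interpolated linearly between surrounding concentrations. Abbreviation: GI50, concentration required for 50% inhibition of growth. The concentration for full growth arrest is given as TGI.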

Experiments:
Assay in all cases: NCI-60 cell line screen, 48 h
UACC-62 melanoma = test system: UACC-62 melanoma
786-0 renal = test system: 786-0 renal
K-562 leukemia = test system: K-562 leukemia
IGROV1 ovarian = test system: IGROV1 ovarian
SF-295 CNS = test system: SF-295 CNS
A498 renal = test system: A498 renal
MOLT-4 leukemia = test system: MOLT-4 leukemia
HS 578T breast = test system: HS 578T breast
SK-OV-3 ovarian = test system: SK-OV-3 ovarian
MDA-MB-435 = test system: MDA-MB-435

CC(/C(=N\Nc1ccccc1)c1ccc(O)cc1)C1C(=O)Oc2ccccc21 (stereo not drawn)
TGI (UACC-62 melanoma): > 100 µM | TGI (786-0 renal): > 100 µM | TGI (K-562 leukemia): > 100 µM | TGI (IGROV1 ovarian): > 100 µM | TGI (SF-295 CNS): > 100 µM | TGI (A498 renal): > 100 µM | TGI (MOLT-4 leukemia): > 100 µM

CCN(CC)CCOc1ccccc1/C=C/c1noc2ccccc12
TGI (UACC-62 melanoma): 22.4 µM | TGI (HS 578T breast): 32.3 µM | TGI (786-0 renal): 26.7 µM | TGI (SK-OV-3 ovarian): 34.3 µM | TGI (K-562 leukemia): > 100 µM | TGI (IGROV1 ovarian): 22.3 µM | TGI (SF-295 CNS): 29.7 µM | TGI (A498 renal): 31.3 µM | TGI (MOLT-4 leukemia): 76.7 µM

NC(N)=N/N=C/c1c(-c2cc(Cl)sc2Cl)nc2sccn12
GI50 (UACC-62 melanoma): 0.752 µM | TGI (UACC-62 melanoma): 1.46 µM | GI50 (HS 578T breast): 0.89 µM | TGI (HS 578T breast): 2.77 µM | GI50 (786-0 renal): 0.924 µM | TGI (786-0 renal): 1.79 µM | GI50 (K-562 leukemia): 1.32 µM | TGI (K-562 leukemia): 3.14 µM | GI50 (IGROV1 ovarian): 1.14 µM | TGI (IGROV1 ovarian): 8.08 µM | GI50 (SF-295 CNS): 1.62 µM | TGI (SF-295 CNS): 6.15 µM | GI50 (MDA-MB-435): 4.03 µM | TGI (MDA-MB-435): 15.1 µM | GI50 (A498 renal): 1.54 µM | TGI (A498 renal): 10.2 µM | GI50 (MOLT-4 leukemia): 0.912 µM | TGI (MOLT-4 leukemia): 1.91 µM

C=C(C)[C@@H]1CC[C@]2(C(=O)O)CC[C@]3(C)[C@H](CC[C@@H]4[C@@]5(C)C[C@@H](CC#Cc6ccc(C(F)(F)F)cc6)[C@H](O)C(C)(C)[C@@H]5CC[C@]43C)[C@@H]12
GI50 (HS 578T breast): 3.88 µM | TGI (HS 578T breast): > 100 µM | GI50 (786-0 renal): 3.2 µM | TGI (786-0 renal): 21.9 µM | GI50 (K-562 leukemia): 1.93 µM | TGI (K-562 leukemia): > 100 µM | GI50 (IGROV1 ovarian): 3.56 µM | TGI (IGROV1 ovarian): > 100 µM | GI50 (A498 renal): 3.16 µM | TGI (A498 renal): > 100 µM | GI50 (MOLT-4 leukemia): 2.75 µM | TGI (MOLT-4 leukemia): > 100 µM

CNCc1cc(OC)ccc1-c1ccc(OC)c(OC)c1OC
TGI (UACC-62 melanoma): > 100 µM | TGI (786-0 renal): > 100 µM | TGI (SK-OV-3 ovarian): > 100 µM | TGI (K-562 leukemia): > 100 µM | TGI (IGROV1 ovarian): > 100 µM | TGI (SF-295 CNS): > 100 µM | TGI (A498 renal): > 100 µM | TGI (MOLT-4 leukemia): > 100 µM

CC1C[C@H](C)CC(C(O)CC2CC(=O)N(Cc3ccccc3)C(=O)C2)C1O (stereo partly drawn)
TGI (UACC-62 melanoma): > 100 µM | TGI (786-0 renal): > 100 µM | TGI (SK-OV-3 ovarian): > 100 µM | TGI (K-562 leukemia): > 100 µM | TGI (IGROV1 ovarian): > 100 µM | TGI (SF-295 CNS): > 100 µM | TGI (A498 renal): > 100 µM | TGI (MOLT-4 leukemia): > 100 µM

CCCCCCCCOCC(O)COC(=O)CCCCCCC (stereo not drawn)
TGI (UACC-62 melanoma): > 100 µM | TGI (786-0 renal): > 100 µM | TGI (SK-OV-3 ovarian): > 100 µM | TGI (K-562 leukemia): > 100 µM | TGI (IGROV1 ovarian): > 100 µM | TGI (SF-295 CNS): > 100 µM | TGI (A498 renal): > 100 µM | TGI (MOLT-4 leukemia): > 100 µM

CCOC(=O)CSC(=O)NCCCl
TGI (UACC-62 melanoma): > 100 µM | TGI (786-0 renal): > 100 µM | TGI (SK-OV-3 ovarian): > 100 µM | GI50 (K-562 leukemia): 29 µM | TGI (K-562 leukemia): > 100 µM | TGI (IGROV1 ovarian): > 100 µM | TGI (SF-295 CNS): > 100 µM | TGI (A498 renal): > 100 µM | GI50 (MOLT-4 leukemia): > 100 µM | TGI (MOLT-4 leukemia): > 100 µM

NNC(=O)CNC(=O)c1ccc(Cl)cc1Cl
TGI (UACC-62 melanoma): > 100 µM | TGI (786-0 renal): > 100 µM | TGI (SK-OV-3 ovarian): > 100 µM | TGI (K-562 leukemia): > 100 µM | TGI (IGROV1 ovarian): > 100 µM | TGI (SF-295 CNS): > 100 µM | TGI (A498 renal): > 100 µM | TGI (MOLT-4 leukemia): > 100 µM

COc1ccc(C2CC(c3cc(C)ccc3O)=NC(N)=N2)cc1 (stereo not drawn)
TGI (UACC-62 melanoma): > 100 µM | TGI (786-0 renal): > 100 µM | TGI (SK-OV-3 ovarian): > 100 µM | TGI (K-562 leukemia): > 100 µM | TGI (IGROV1 ovarian): > 100 µM | TGI (SF-295 CNS): > 100 µM | TGI (A498 renal): > 100 µM | TGI (MOLT-4 leukemia): > 100 µM

OCC(O)C(O)C(O)c1nn(-c2ccc(Cl)cc2)c2nc3cc(Cl)c(Cl)cc3nc12 (stereo not drawn)
TGI (UACC-62 melanoma): > 100 µM | TGI (786-0 renal): > 100 µM | TGI (SK-OV-3 ovarian): 58.6 µM | TGI (K-562 leukemia): > 100 µM | TGI (IGROV1 ovarian): > 100 µM | TGI (SF-295 CNS): > 100 µM | TGI (MOLT-4 leukemia): > 100 µM
